Test results taken from PMC8523698, “Preclinical characterization of an intravenous coronavirus 3CL protease inhibitor for the potential treatment of COVID19” (Nature Communications, 2021).
Several values for one entry are separate records, joined by “and”; a condition that tells them apart may be missing. Identical values can stand only once. Like-named read-outs stand apart in the source and are kept apart here.

Experiments:
HCoV-229E = experiment: Viral CPE assay in MRC-5 cells (CellTiter Glo); format: cell-based
CYP2C8 = target: T1, CYP2C8 (Homo sapiens, UniProt P10632); experiment: Reversible CYP inhibition in human liver microsomes; settings: for activity at 0.01 µM / activity at 0.158 µM / activity at 0.398 µM / activity at 1 µM / activity at 15.8 µM / activity at 39.8 µM / activity at 100 µM: human, microsomes, pH 7.4, Percent of Control Activity
T1 sequence (P10632 1-490): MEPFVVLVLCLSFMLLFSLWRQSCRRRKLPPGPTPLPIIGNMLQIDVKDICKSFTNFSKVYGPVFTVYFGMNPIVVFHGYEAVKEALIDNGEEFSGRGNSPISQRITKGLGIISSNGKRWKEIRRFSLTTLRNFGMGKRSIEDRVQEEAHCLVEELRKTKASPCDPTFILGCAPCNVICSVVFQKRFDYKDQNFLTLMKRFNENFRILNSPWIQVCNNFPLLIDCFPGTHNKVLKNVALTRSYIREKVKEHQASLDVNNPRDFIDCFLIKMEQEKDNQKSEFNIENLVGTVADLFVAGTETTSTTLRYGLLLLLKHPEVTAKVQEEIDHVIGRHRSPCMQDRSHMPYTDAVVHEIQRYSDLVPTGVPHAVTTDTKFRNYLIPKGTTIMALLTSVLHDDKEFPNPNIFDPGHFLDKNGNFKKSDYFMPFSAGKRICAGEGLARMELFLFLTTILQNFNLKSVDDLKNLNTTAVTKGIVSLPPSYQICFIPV

CYP2C19 = CYP2C19 (Homo sapiens, UniProt P33261); experiment: as above; settings: for activity at 0.01 µM / activity at 0.158 µM / activity at 0.398 µM / activity at 1 µM / activity at 15.8 µM / activity at 39.8 µM / activity at 100 µM: human, microsomes, pH 7.4, Percent of Control Activity; for activity at 39.8 µM: CYP 2C19, 39.8 µM
CYP3A4/5 = experiment: as above; settings: for IC50: pH 7.4, probe midazolam (1′-hydroxylation), at approximately KM, IC50, Midazolam 1′-hydroxylation
[1] = human, human liver microsomes, pH 7.4, probe midazolam (mdz), Percent of Control Activity, CYP 3A4/5 (mdz), 30-Minute Preincubation
[2] = human, human liver microsomes, pH 7.4, probe midazolam (mdz), Percent of Control Activity, CYP 3A4/5 (mdz), Zero-Minute Preincubation

Chain of CYP2C19 (P33261 whole entry): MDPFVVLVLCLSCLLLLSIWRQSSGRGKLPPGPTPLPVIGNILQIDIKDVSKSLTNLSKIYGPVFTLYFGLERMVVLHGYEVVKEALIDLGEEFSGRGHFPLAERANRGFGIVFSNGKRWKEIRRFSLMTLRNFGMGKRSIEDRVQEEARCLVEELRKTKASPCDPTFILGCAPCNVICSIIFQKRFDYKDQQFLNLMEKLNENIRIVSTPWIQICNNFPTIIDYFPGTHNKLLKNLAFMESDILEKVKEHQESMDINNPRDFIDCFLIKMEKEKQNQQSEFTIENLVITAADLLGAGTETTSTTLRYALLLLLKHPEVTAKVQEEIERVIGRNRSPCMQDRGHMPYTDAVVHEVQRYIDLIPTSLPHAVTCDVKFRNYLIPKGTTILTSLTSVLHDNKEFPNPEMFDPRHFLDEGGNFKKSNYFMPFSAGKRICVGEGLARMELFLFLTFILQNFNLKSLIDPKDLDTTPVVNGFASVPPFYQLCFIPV

## COc1cccc2[nH]c(C(=O)N[C@@H](CC(C)C)C(=O)N[C@@H](C[C@@H]3CCNC3=O)C(=O)COP(=O)(O)O)cc12 [PF-07304814]
HCoV-229E; Human coronavirus 229E, MRC5, read-out: EC50 GeoMean (95% CI), efflux inhibitor CP-100356: 0
  EC50: 0.074 µM
HCoV-229E; Human coronavirus 229E, MRC5, read-out: EC50 GeoMean (95% CI), efflux inhibitor CP-100356: 0.5 μM
  EC50: 0.058 µM
HCoV-229E; MRC-5, plus 0.5 uM efflux inhibitor, one value per run date (N=3), read-out: EC50
  EC50: 0.0818 µM
CYP2C8
  IC50: > 100 µM
CYP2C8; Amodiaquine N-dealkylation, T30
  IC50: > 100 µM
CYP2C8; CYP 2C8, 0.01 µM, 30-Minute Preincubation, 0.01 µM
  Percent of Control Activity: 100.2%
CYP2C8; CYP 2C8, 0.01 µM, Zero-Minute Preincubation, 0.01 µM
  Percent of Control Activity: 96.2% and 97.6%
CYP2C8; CYP 2C8, 0.158 µM, 30-Minute Preincubation, 0.158 µM
  Percent of Control Activity: 96.6% and 95.8%
CYP2C8; CYP 2C8, 0.158 µM, Zero-Minute Preincubation, 0.158 µM
  Percent of Control Activity: 91.2% and 95.2%
CYP2C8; CYP 2C8, 0.398 µM, 30-Minute Preincubation, 0.398 µM
  Percent of Control Activity: 95.5% and 95.0%
CYP2C8; CYP 2C8, 0.398 µM, Zero-Minute Preincubation, 0.398 µM
  Percent of Control Activity: 94.0% and 94.9%
CYP2C8; CYP 2C8, 1 µM, 30-Minute Preincubation, 1 µM
  Percent of Control Activity: 96.0% and 95.0%
CYP2C8; CYP 2C8, 1 µM, Zero-Minute Preincubation, 1 µM
  Percent of Control Activity: 93.7%
CYP2C8; CYP 2C8, 15.8 µM, 30-Minute Preincubation, 15.8 µM
  Percent of Control Activity: 96.2% and 94.8%
CYP2C8; CYP 2C8, 15.8 µM, Zero-Minute Preincubation, 15.8 µM
  Percent of Control Activity: 94.0% and 95.0%
CYP2C8; CYP 2C8, 39.8 µM, 30-Minute Preincubation, 39.8 µM
  Percent of Control Activity: 94.8% and 91.6%
CYP2C8; CYP 2C8, 39.8 µM, Zero-Minute Preincubation, 39.8 µM
  Percent of Control Activity: 94.6%
CYP2C8; CYP 2C8, 100 µM, 30-Minute Preincubation, 100 µM
  Percent of Control Activity: 96.4%
CYP2C8; CYP 2C8, 100 µM, Zero-Minute Preincubation, 100 µM
  Percent of Control Activity: 88.3%
CYP2C8; CYP 2C8, 0.01 µM, 30-Minute Preincubation
  activity at 0.01 µM: 94.3%
CYP2C8; CYP 2C8, 0.01 µM, Zero-Minute Preincubation
  activity at 0.01 µM: 95.1%
CYP2C8; CYP 2C8, 0.158 µM, 30-Minute Preincubation
  activity at 0.158 µM: 90.5%
CYP2C8; CYP 2C8, 0.158 µM, Zero-Minute Preincubation
  activity at 0.158 µM: 91.3%
CYP2C8; CYP 2C8, 0.398 µM, 30-Minute Preincubation
  activity at 0.398 µM: 92.1%
CYP2C8; CYP 2C8, 0.398 µM, Zero-Minute Preincubation
  activity at 0.398 µM: 95.4%
CYP2C8; CYP 2C8, 1 µM, 30-Minute Preincubation
  activity at 1 µM: 91.8%
CYP2C8; CYP 2C8, 1 µM, Zero-Minute Preincubation
  activity at 1 µM: 92.1%
CYP2C8; CYP 2C8, 15.8 µM, 30-Minute Preincubation
  activity at 15.8 µM: 88.9%
CYP2C8; CYP 2C8, 15.8 µM, Zero-Minute Preincubation
  activity at 15.8 µM: 89.3%
CYP2C8; CYP 2C8, 39.8 µM, 30-Minute Preincubation
  activity at 39.8 µM: 88.9%
CYP2C8; CYP 2C8, 39.8 µM, Zero-Minute Preincubation
  activity at 39.8 µM: 87%
CYP2C8; CYP 2C8, 100 µM, 30-Minute Preincubation
  activity at 100 µM: 89.5%
CYP2C8; CYP 2C8, 100 µM, Zero-Minute Preincubation
  activity at 100 µM: 85.6%
CYP2C19
  IC50: > 100 µM
CYP2C19; CYP 2C19, 0.01 µM, Zero-Minute Preincubation, 0.01 µM
  Percent of Control Activity: 94.2%
CYP2C19; CYP 2C19, 0.158 µM, 30-Minute Preincubation, 0.158 µM
  Percent of Control Activity: 96.4%
CYP2C19; CYP 2C19, 0.158 µM, Zero-Minute Preincubation, 0.158 µM
  Percent of Control Activity: 101.4%
CYP2C19; CYP 2C19, 0.398 µM, 30-Minute Preincubation, 0.398 µM
  Percent of Control Activity: 100.7%
CYP2C19; CYP 2C19, 0.398 µM, Zero-Minute Preincubation, 0.398 µM
  Percent of Control Activity: 97.9%
CYP2C19; CYP 2C19, 1 µM, 30-Minute Preincubation, 1 µM
  Percent of Control Activity: 97.8%
CYP2C19; CYP 2C19, 1 µM, Zero-Minute Preincubation, 1 µM
  Percent of Control Activity: 102.1%
CYP2C19; CYP 2C19, 15.8 µM, 30-Minute Preincubation, 15.8 µM
  Percent of Control Activity: 97.1%
CYP2C19; CYP 2C19, 15.8 µM, Zero-Minute Preincubation, 15.8 µM
  Percent of Control Activity: 107.2% and 102.9%
CYP2C19; CYP 2C19, 100 µM, 30-Minute Preincubation, 100 µM
  Percent of Control Activity: 97.8% and 97.1%
CYP2C19; S-Mephenytoin 4′-hydroxylation, T0
  IC50: > 100 µM
CYP2C19; CYP 2C19, 0.01 µM, 30-Minute Preincubation
  activity at 0.01 µM: 103%
CYP2C19; CYP 2C19, 0.01 µM, Zero-Minute Preincubation
  activity at 0.01 µM: 99.3%
CYP2C19; CYP 2C19, 0.158 µM, 30-Minute Preincubation
  activity at 0.158 µM: 100%
CYP2C19; CYP 2C19, 0.158 µM, Zero-Minute Preincubation
  activity at 0.158 µM: 94.4%
CYP2C19; CYP 2C19, 0.398 µM, 30-Minute Preincubation
  activity at 0.398 µM: 102%
CYP2C19; CYP 2C19, 0.398 µM, Zero-Minute Preincubation
  activity at 0.398 µM: 96.5%
CYP2C19; CYP 2C19, 1 µM, 30-Minute Preincubation
  activity at 1 µM: 101%
CYP2C19; CYP 2C19, 1 µM, Zero-Minute Preincubation
  activity at 1 µM: 95.8%
CYP2C19; CYP 2C19, 15.8 µM, 30-Minute Preincubation
  activity at 15.8 µM: 102%
CYP2C19; CYP 2C19, 15.8 µM, Zero-Minute Preincubation
  activity at 15.8 µM: 104%
CYP2C19; 30-Minute Preincubation
  activity at 39.8 µM: 97.7%
CYP2C19; Zero-Minute Preincubation
  activity at 39.8 µM: 94.4%
CYP2C19; CYP 2C19, 100 µM, 30-Minute Preincubation
  activity at 100 µM: 95.5%
CYP2C19; CYP 2C19, 100 µM, Zero-Minute Preincubation
  activity at 100 µM: 91.5%
CYP3A4/5; CYP 3A4/5 (mdz), 0.01 µM, 30-Minute Preincubation
  Percent of Control Activity: 103.5%
CYP3A4/5; CYP 3A4/5 (mdz), 15.8 µM, Zero-Minute Preincubation
  Percent of Control Activity: 105.7%
CYP3A4/5; CYP 3A4/5 (mdz), 39.8 µM, 30-Minute Preincubation
  Percent of Control Activity: 99.7%
CYP3A4/5; CYP 3A4/5 (mdz), 100 µM, 30-Minute Preincubation
  Percent of Control Activity: 95.6%
CYP3A4/5; CYP 3A4/5 (mdz), 100 µM, Zero-Minute Preincubation
  Percent of Control Activity: 100.4%
CYP3A4/5; human, human liver microsomes, T0
  IC50: > 100 µM
CYP3A4/5; human, human liver microsomes, T30
  IC50: > 100 µM
CYP3A4/5; human, human liver microsomes, pH 7.4, probe midazolam (mdz), Percent of Control Activity, CYP 3A4/5 (mdz), 0.01 µM, Zero-Minute Preincubation
  activity at 0.01 µM: 96.3%
CYP3A4/5; [1]
  activity at 0.158 µM: 103%
  activity at 1 µM: 100%
CYP3A4/5; [2]
  activity at 0.158 µM: 95%
  activity at 1 µM: 99.8%
CYP3A4/5; human, human liver microsomes, pH 7.4, probe midazolam (mdz), Percent of Control Activity, CYP 3A4/5 (mdz), 0.398 µM, 30-Minute Preincubation
  activity at 0.398 µM: 100%
CYP3A4/5; human, human liver microsomes, pH 7.4, probe midazolam (mdz), Percent of Control Activity, CYP 3A4/5 (mdz), 15.8 µM, Zero-Minute Preincubation
  activity at 15.8 µM: 101%
CYP3A4/5; human, human liver microsomes, pH 7.4, probe midazolam (mdz), Percent of Control Activity, CYP 3A4/5 (mdz), 100 µM, 30-Minute Preincubation
  activity at 100 µM: 95%
